# Measured values published in patent publication US11826431B2, “Polypeptide-based ocular absorption enhancer and application thereof” (Fudan University, priority 2017, dated 2023).
# Where a SMILES comes first, the peptide text is derived from it. The star is where a group is joined. 5FAM = O=C1OC2(c3ccc(O)cc3Oc3cc(O)ccc32)c2ccc(C(=O)*)cc21
# Assays:
# [1] = Intraocular distribution of penetratin derivative-FAM complexes after conjunctival sac administration; assay type: in vivo, mice
# Procedure: Evaluation of intraocular distribution of the covalently linked complex of Penetratin derivatives and small molecules: 5 μL of a solution of complex of penetratin derivative and FAM (concentration 30 μM) was dripped into the conjunctival sac of male mice, and the eyelids were gently closed to distribute the solution evenly. The solution was administered every 10 minutes for a total of 3 times, and taking the time of the last administration as zero time. At a preset time point, mice were killed by intraperitoneal injection of excessive chloral hydrate, and the eyeballs of the mice were removed, fixed with Davidson's solution for 0.5 h, and embedded. Frozen longitudinal sections of eyeballs were prepared and the nuclei were stained with DAPI, and the distribution of polypeptides in the eye parts was observed under an inverted fluorescence microscope.
# [2] = In vitro tissue permeability, isolated cornea (diffusion cells); assay type: in vitro ADME, rabbit
# Procedure: (§1) Evaluation of in vitro tissue permeability of the covalently linked complex of Penetratin derivatives and small molecular substances: the experimental rabbits were anesthetized with pentobarbital sodium (30 mg/kg), which is injected via ear vein, and sacrificed by injection with excessive chloral hydrate (150 mg/kg). After separation of the conjunctiva, carefully removed the entire eyeball, make a circumcision at about 2 mm from the limbus of cornea and remove the cornea, and removed the iris and other tissues to obtain an experimental cornea. The rest of the eyeballs were removed from the retina and other tissues to obtain an experimental sclera. Both the cornea and sclera were carefully washed with Ringer's solution 3 times before use. The experiment was started within 30 min after the animals were sacrificed. The freshly isolated cornea and sclera were carefully sandwiched between two diffusion cells, with the epithelial surface facing a diffusion cell (supply cell) on the left, the diffusion window diameter was 10.25 mm, and the diffusion area was 0.825 cm^2. 3.5 mL of Ringer's solutions were added to the supply cell and a receiving cell on the right, respectively. Circulating water was passed therein, and the water temperature was kept at 34° C.±0.5° C. […] Immediately after the experiment, the fluorescence intensity of the sample was measured. […]
# [3] = In vitro tissue permeability, isolated sclera (diffusion cells); assay type: in vitro ADME, rabbit
# Procedure: as §1
# [4] = 10 min after conjunctival sac administration (FIG. 6B)
# [5] = 7.5 μM complex with FAM, 34° C.
# [6] = DAPI stained frozen sections after permeability experiment
smiles,measurement,setting,value
"C[C@H](NC(=O)[C@H](C)NC(=O)[C@H](CCCCN)NC(=O)[C@H](C)NC(=O)[C@H](CCC(N)=O)NC(=O)[C@@H](N)CCCNC(=N)N)C(=O)N[C@@H](C)C(=O)N[C@@H](CCC(N)=O)C(=O)N[C@@H](CC(N)=O)C(=O)N[C@@H](CCCNC(=N)N)C(=O)N[C@@H](CCCNC(=N)N)C(=O)N[C@@H](C)C(=O)N[C@@H](CCCCN)C(=O)N[C@@H](C)C(=O)N[C@@H](CCCCN)C(=O)N[C@@H](CCCCN)C(=O)N[C@@H](CCCCNC(=O)c1ccc2c(c1)C(=O)OC21c2ccc(O)cc2Oc2cc(O)ccc21)C(=O)O [6A, RQAKAAAQNRRAKAKKK-FAM] (H-RQAKAAAQNRRAKAKKK(5FAM)-OH)",distribution in the cornea,[1]; [4],significantly less distributed
same,distribution in the retina,[1]; [4],less distributed
same,FAM fluorescence signal in anterior and posterior segment of the eye compared with wild-type penetratin,"[1]; 10 minutes after eye drops, 30 μM, 5 μL x 3",weakened
same,amount entering the eye (cornea and retina) compared with wild-type penetratin,[1]; semi-quantitative analysis (FIG. 6C),significantly less
same,"Papp value relative to wild-type penetratin, isolated cornea",[2]; [5],⅕
same,fluorescence in isolated cornea sections compared with wild-type penetratin group,[2]; [6],no obvious fluorescence signal
same,"Papp value relative to wild-type penetratin, isolated sclera",[3]; [5],⅔
same,fluorescence signal in isolated sclera sections compared with wild-type penetratin group,[3]; [6],significantly weaker
